Test results: patent publication US11072598B2, “Somatostatin modulators and uses thereof” (CRINETICS PHARMACEUTICALS, INC., priority 2017, dated 2021)

target: T1, human somatostatin receptor subtype 2 (Homo sapiens, UniProt P30874); assay: cAMP functional assay for SSTR2 agonists; format: cell-based; details: inhibition of cAMP activities via human SST2 receptor (SSTR2), CHO-K1 cells; read-out: EC50
T1 construct: expressed in transfected cells
Source text: General overview: All five SSTR subtypes are Gi coupled G-protein coupled receptors (GPCRs) that lead to decreases in intracellular cyclic AMP (cAMP) when activated by an agonist. Therefore, measurement of intracellular cAMP levels can be used to assess whether compounds of the invention are agonists of SSTR subtypes (John Kelly, Troy Stevens, W. Joseph Thompson, and Roland Seifert, Current Protocols in Pharmacology, 2005, 2.2.1-2.2). One example of an intracellular cAMP assay is described below. cAMP assay protocol:
Four days prior to the assay, 5,000 Chinese hamster ovary cells (CHO-K1, ATCC #CCL-61) stably expressing the human somatostatin receptor subtype 2 are plated in each well of a 96-well tissue culture-treated plate in Ham's F12 growth media (ThermoFisher #10-080-CM) supplemented with 10% donor bovine serum (Gemini Bio-Products #100-506), 100 U/mL penicillin; 100 ug/mL streptomycin; 2 mM L-glutamine (Gemini Bio-Products #400-110) and 0.2 mg/mL hygromycin B (GoldBio #31282-04-9). The cells are cultured at 37° C., 5% CO2 and 95% humidity. On the day of the assay, the media is aspirated and the cells are treated with 50 μL of 1.6 μM NKH477 (Sigma #N3290) plus various dilutions of compounds of the invention in assay buffer [1× Hank's Balanced Salt Solution (ThermoFisher #SH3058802), 0.5 mM HEPES pH 7.4, 0.1% bovine serum albumin, 0.2 mM 3-Isobutyl-1-methylxanthine (IBMX, VWR #200002-790)]. The cells are incubated for 20 minutes at 37° C. […] The cells are treated with 50 μL of lysis buffer (HRTF cAMP kit, Cisbio). The lysate is transferred to 384-well plates and cAMP detection and visualization antibodies are added and incubated for 1-24 hours at room temperature. The time-resolved fluorescent signal is read with a Tecan M1000Pro multiplate reader. The intracellular cAMP concentrations are calculated by regression to a standard curve and are plotted vs. the concentration of the compounds of the invention and the EC50 of the compounds are calculated using standard methods. All data manipluations are in GraphPad Prism v6.

T1 sequence (P30874 whole entry): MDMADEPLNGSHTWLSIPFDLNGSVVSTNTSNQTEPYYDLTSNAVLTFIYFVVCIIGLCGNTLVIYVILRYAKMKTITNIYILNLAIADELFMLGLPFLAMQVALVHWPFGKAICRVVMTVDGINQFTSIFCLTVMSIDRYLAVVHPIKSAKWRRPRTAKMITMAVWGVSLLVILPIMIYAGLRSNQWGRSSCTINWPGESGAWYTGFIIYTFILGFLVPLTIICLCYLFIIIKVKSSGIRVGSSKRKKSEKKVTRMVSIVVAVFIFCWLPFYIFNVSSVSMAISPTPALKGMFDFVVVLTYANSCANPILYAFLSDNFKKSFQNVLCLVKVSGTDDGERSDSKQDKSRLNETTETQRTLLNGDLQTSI

| Compound | EC50 |
| --- | --- |
| COc1cc(F)cc(-c2cnc(N)c(-c3nc4cc(F)cc(F)c4[nH]3)c2N2CCC(N)CC2)c1 [Compound 1-67, 4-(4-aminopiperidin-1-yl)-3-(5,7-difluoro-1H-1,3-benzodiazol-2-yl)-5-(3-fluoro-5-methoxyphenyl)pyridin-2-amine] | < 10 nM |
| Cc1cc(F)cc(-c2cnnc(-c3nc4cc(F)ccc4[nH]3)c2N2CCC(N)CC2)c1 [Compound 3-13, 1-[3-(5-fluoro-1H-1,3-benzodiazol-2-yl)-5-(3-fluoro-5-methylphenyl)pyridazin-4-yl]piperidin-4-amine] | < 10 nM |
| CON(C)C(=O)c1ccc2[nH]c(-c3c(N)ncc(-c4cc(C)cc(F)c4)c3N3CCC(N)CC3)nc2c1 [Compound 1-24, 2-[2-amino-4-(4-aminopiperidin-1-yl)-5-(3-fluoro-5-methylphenyl)pyridin-3-yl]-N-methoxy-N-methyl-1H-1,3-benzodiazole-5-carboxamide] | < 10 nM |
| Cc1cc(F)cc(-c2cnc(N)c(C=NOC(C)C)c2N2CCC(N)CC2)c1 [Compound 1-34] | < 10 nM |
| C#Cc1cc(F)c2[nH]c(-c3c(N)ncc(-c4cc(C)cc(F)c4)c3N3CCC(N)CC3)nc2c1 [Compound 1-66, 4-(4-aminopiperidin-1-yl)-3-(5-ethynyl-7-fluoro-1H-1,3-benzodiazol-2-yl)-5-(3-fluoro-5-methylphenyl)pyridin-2-amine] | < 10 nM |
| Cc1cc(F)cc(-c2cnc(O)c(-c3nc4cc(F)c(F)cc4[nH]3)c2N2CCC(N)CC2)c1 [Compound 2-7, 4-(4-aminopiperidin-1-yl)-3-(5,6-difluoro-1H-1,3-benzodiazol-2-yl)-5-(3-fluoro-5-methylphenyl)pyridin-2-ol] | 10 to 100 nM |
| CON=Cc1cc(OC)c2[nH]c(-c3c(N)ncc(-c4cc(C)cc(F)c4)c3N3CCC(N)CC3)nc2c1 [Compound 1-76, 4-(4-aminopiperidin-1-yl)-5-(3-fluoro-5-methylphenyl)-3-{7-methoxy-5-[(methoxyimino)methyl]-1H-1,3-benzodiazol-2-yl}pyridin-2-amine] | < 10 nM |
| COc1ccc2[nH]c(-c3nncc(-c4cc(C)cc(F)c4)c3N3CCC(N)CC3)cc2c1 [Compound 3-9, 1-[5-(3-fluoro-5-methylphenyl)-3-(5-methoxy-1H-indol-2-yl)pyridazin-4-yl]piperidin-4-amine] | < 10 nM |
| Cc1cc(F)cc(-c2cnc(N)c(-c3nc4cnccc4[nH]3)c2N2CCC(N)CC2)c1 [Compound 1-51, 4-(4-aminopiperidin-1-yl)-5-(3-fluoro-5-methylphenyl)-3-{1H-imidazo[4,5-c]pyridin-2-yl}pyridin-2-amine] | < 10 nM |
| COc1ccc2c(C#N)c(-c3nncc(-c4cc(C)cc(F)c4)c3N3CCC(N)CC3)[nH]c2c1 [Compound 3-25, 2-[4-(4-aminopiperidin-1-yl)-5-(3-fluoro-5-methylphenyl)pyridazin-3-yl]-6-methoxy-1H-indole-3-carbonitrile] | < 10 nM |
| Cc1cc(F)cc(-c2cnc(N)c(-c3nc4cccc(C#N)c4[nH]3)c2N2CCC(N)CC2)c1 [Compound 1-21, 2-[2-amino-4-(4-aminopiperidin-1-yl)-5-(3-fluoro-5-methylphenyl)pyridin-3-yl]-1H-1,3-benzodiazole-7-carbonitrile] | < 10 nM |
| Cc1cc(F)cc(-c2cnc(N)c(-c3nc4cc(N5CC(F)C5)ccc4[nH]3)c2N2CCC(N)CC2)c1 [Compound 1-26, 4-(4-aminopiperidin-1-yl)-5-(3-fluoro-5-methylphenyl)-3-[5-(3-fluoroazetidin-1-yl)-1H-1,3-benzodiazol-2-yl]pyridin-2-amine] | < 10 nM |
| CO[C@@H]1CN(c2c(-c3cc(C)cc(F)c3)cnnc2-c2cc3ccc(Cl)cc3[nH]2)CC[C@H]1N (relative stereo) [Compound 3-11, trans-1-[3-(6-chloro-1H-indol-2-yl)-5-(3-fluoro-5-methylphenyl)pyridazin-4-yl]-3-methoxypiperidin-4-amine] | < 10 nM |
